One data set deals with T1, TRPV1 receptor (Rattus norvegicus, UniProt O35433).
T1 construct: The neurons of the DRG naturally express the TRPV1 receptor; endogenous in cells; host or cells: primary culture of newborn rat dorsal root ganglion neurons
Briefly: Inhibition of the current induced by capsaicin on rat DRGs (whole-cell patch-clamp). To be noted: DRG neuron, inhibition of control capsaicin (1 microM) response, newborn rat DRG neurons; for inhibition at 0.001 µM: compound at 1 nM; for inhibition at 0.01 µM: compound at 10 nM. It is filed as cell-based. As for the experimental part: Test for Inhibition of the Current Induced by Capsaicin on Rat DRGs
• Primary culture of rat dorsal root ganglion (DRG) cells:
The neurons of the DRG naturally express the TRPV1 receptor.
Newborn rat DRG primary cultures are prepared from one-day-old rat pups. Briefly, after dissection, the ganglia are trypsinized and the cells are mechanically dissociated by controlled trituration. The cells are resuspended in an Eagle's basal culture medium containing 10% of foetal calf serum, 25 mM KCl, 2 mM glutamine, 100 μg/ml gentamycin and 50 ng/ml of NGF, and then deposited onto laminin-coated glass cover slips (0.25×10^6 cells per cover slip) which are then placed in 12-well Corning dishes. The cells are incubated at 37° C. in a humidified atmosphere containing 5% CO2 and 95% air. Cytosine β-D-arabinoside (1 μM) is added 48 h after placing in culture, in order to prevent the development of non-neuronal cells. The cover slips are transferred into the experimental chambers for the patch-clamp studies after 7-10 days of culture. • Electrophysiology:
The measuring chambers (volume 800 μl) containing the cell preparation are placed on the platform of an inverted microscope (Olympus IMT2) equipped with Hoffman optics (Modulation Contrast, New York) and observed at the magnification of ×400. The chambers are continually perfused by gravity (2.5 ml/min) by means of a solution distributing device with 8 inlets, and the sole outlet of which, consisting of a polyethylene tube (500 μm aperture), is placed at least 3 mm from the cell studied. The “whole cell” configuration of the patch-clamp technique was used. The borosilicate glass pipettes (resistance 5-10 MOhms) are moved close to the cell by means of a 3D piezoelectric micromanipulator (Burleigh, PC1000). The overall currents (membrane potential fixed at −60 mV) are recorded with an Axopatch 1D amplifier (Axon Instruments, Foster city, Calif.), connected to a PC control by Pclamp8 software (Axon Instrument). The current traces are recorded on paper and simultaneously digitized (sampling frequency […]) and acquired on the hard drive of the PC.
The application of a micromolar solution of capsaicin causes, on the DRG cells (voltage fixed at −70 mV), an inward cationic current. In order to minimize the desensitization of the receptors, a minimum period of one minute is observed between two applications of capsaicin. After a controlled period (stabilization of the capsaicin response alone), the compounds to be tested are applied alone at a given concentration (concentration of 10 nM or of […]) for a period of 4 to 5 minutes, during which several capsaicin+compound tests are carried out (obtaining of maximum inhibition). The results are expressed as % inhibition of the control capsaicin response.
In general terms: Patch clamp records ionic current or voltage across a cell membrane.

For a further data set, the target named is T2, TRPV1 receptors (Mus musculus, UniProt Q704Y3).
T2 construct: from tissue; host or cells: cornea of the living mouse (in vivo)
Briefly: Mouse corneal irritation test (capsaicin-induced eye rubbing). It counts as in vivo. Particulars: compound 500 μM, 2 μl local application to cornea 10 min before capsaicin 160 μM; eye rubs counted over 2 min. As to the method:
Mouse Corneal Irritation Test
The irritant nature of capsaicin can be readily assessed at the level of the cornea since this organ is one of the most innervated by C fibres. In this context, according to preliminary experiments, the application of a very small amount of capsaicin (2 μl at a concentration of 160 μM) to the surface of the cornea of an animal results in a certain number of stereotyped behaviors associated with the irritation and that can be readily listed. Among these are: blinking of the eye, rubbing of the instilled eye with the ipsilateral forelimb, rubbing of the face with both forelimbs, scratching of the ipsilateral face with the hind limb. […]
In practice, the product to be tested, prepared at 25 mM in DMSO and diluted for its final use in physiological serum with 10% Tween 80, at the highest concentration of 500 μM, is administered by local application to the surface of the cornea in a volume of 2 μl, 10 minutes before the application of the capsaicin. […] Over the course of a period of observation of 2 minutes following the instillation, the number of times the instilled eye is rubbed by the ipsilateral forelimb is counted for each animal. For each given group, the percentage protection is calculated as follows: P=100−((average number of scratches of the group treated with the compound/average number of scratches of the group treated with the solvent)×100) […]

T1 sequence (O35433 whole entry): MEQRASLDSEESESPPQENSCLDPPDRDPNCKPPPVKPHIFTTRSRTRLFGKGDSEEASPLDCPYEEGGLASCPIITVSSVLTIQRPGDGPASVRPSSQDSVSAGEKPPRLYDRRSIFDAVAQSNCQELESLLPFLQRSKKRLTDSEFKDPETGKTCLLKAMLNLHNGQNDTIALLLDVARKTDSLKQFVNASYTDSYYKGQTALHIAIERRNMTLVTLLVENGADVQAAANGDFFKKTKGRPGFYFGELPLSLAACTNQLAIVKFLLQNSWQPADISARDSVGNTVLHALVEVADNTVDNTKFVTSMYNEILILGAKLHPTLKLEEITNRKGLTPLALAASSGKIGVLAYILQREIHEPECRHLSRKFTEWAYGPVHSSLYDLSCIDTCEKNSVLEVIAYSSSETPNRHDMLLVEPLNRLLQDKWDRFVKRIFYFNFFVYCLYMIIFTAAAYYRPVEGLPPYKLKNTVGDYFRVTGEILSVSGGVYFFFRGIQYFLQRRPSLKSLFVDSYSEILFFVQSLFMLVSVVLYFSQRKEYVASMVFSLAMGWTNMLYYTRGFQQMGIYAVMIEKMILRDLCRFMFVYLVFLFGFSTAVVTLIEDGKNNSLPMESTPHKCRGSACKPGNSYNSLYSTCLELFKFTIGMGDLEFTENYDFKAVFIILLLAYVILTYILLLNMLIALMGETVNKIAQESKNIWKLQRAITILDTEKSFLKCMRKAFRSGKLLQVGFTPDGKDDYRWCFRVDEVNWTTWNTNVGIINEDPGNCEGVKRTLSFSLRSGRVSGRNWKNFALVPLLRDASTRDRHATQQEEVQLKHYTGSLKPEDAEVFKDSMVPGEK
T2 sequence (Q704Y3 whole entry): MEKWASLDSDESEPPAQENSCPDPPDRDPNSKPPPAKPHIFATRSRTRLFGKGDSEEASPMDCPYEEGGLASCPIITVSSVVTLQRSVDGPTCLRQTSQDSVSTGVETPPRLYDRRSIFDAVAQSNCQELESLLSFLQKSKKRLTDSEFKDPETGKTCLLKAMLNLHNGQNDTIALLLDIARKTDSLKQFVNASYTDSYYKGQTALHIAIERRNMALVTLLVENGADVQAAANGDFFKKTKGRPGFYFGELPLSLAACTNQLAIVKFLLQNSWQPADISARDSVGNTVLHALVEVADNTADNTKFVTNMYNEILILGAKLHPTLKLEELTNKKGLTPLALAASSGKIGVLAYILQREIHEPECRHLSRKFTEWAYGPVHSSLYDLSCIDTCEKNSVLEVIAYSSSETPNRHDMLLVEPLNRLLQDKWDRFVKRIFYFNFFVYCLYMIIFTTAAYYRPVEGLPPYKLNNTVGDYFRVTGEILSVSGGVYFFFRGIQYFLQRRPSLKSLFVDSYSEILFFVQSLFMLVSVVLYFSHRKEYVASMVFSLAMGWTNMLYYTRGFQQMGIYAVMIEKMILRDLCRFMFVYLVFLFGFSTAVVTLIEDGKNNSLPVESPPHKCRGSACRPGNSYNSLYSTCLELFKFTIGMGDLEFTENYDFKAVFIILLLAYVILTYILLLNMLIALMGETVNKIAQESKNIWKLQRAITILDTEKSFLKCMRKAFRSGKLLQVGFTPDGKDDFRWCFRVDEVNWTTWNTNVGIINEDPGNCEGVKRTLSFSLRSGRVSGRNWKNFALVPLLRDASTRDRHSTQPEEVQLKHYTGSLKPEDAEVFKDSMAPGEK

What is called inhibition is the share of the control response that was lost under treatment. A low value points to a weak effect. For orientation: melting point means the temperature of the solid-liquid transition. `O=C(Nc1ccc(N2CCCC2)nc1)c1cc2cc(F)ccc2n1Cc1cccc(F)c1` [Compound 2, N-[6-(pyrrolidin-1-yl)pyridin-3-yl]-5-fluoro-1-(3-fluorobenzyl)-1H-indole-2-carboxamide] registered a melting point of 199 to 201 °C. On TRPV1 receptor, this compound displayed an inhibition at 0.001 µM of 46%. Further, the “% P 500 μM (percentage protection)” value at TRPV1 receptors is 72%. `O=C(Nc1ccc(N2CCC2)nc1)c1cc2cc(F)ccc2n1Cc1cccc(F)c1` [Compound 4, N-[6-(azetidin-1-yl)pyridin-3-yl]-5-fluoro-1-(3-fluorobenzyl)-1H-indole-2-carboxamide]: the inhibition at 0.001 µM against TRPV1 receptor amounted to 89%.

For `O=C(Nc1ccc(N2CCC(O)C2)nc1)c1cc2cc(F)ccc2n1Cc1cccc(F)c1` (stereo not shown) [Compound 7, N-[6-(3-hydroxypyrrolidin-1-yl)pyridin-3-yl]-5-fluoro-1-(3-fluorobenzyl)-1H-indole-2-carboxamide], at 0.01 µM the inhibition at TRPV1 receptor was 85%. In turn, `O=C(Nc1cnc(N2CCCC2)nc1)c1cc2cc(F)ccc2n1Cc1cccc(F)c1` [Compound 21, N-[2-(pyrrolidin-1-yl)pyrimidin-5-yl]-5-fluoro-1-(3-fluorobenzyl)-1H-indole-2-carboxamide] displayed a melting point of 220 to 222 °C. Moreover, on TRPV1 receptor, at 0.01 µM the inhibition was 79%.

The values are drawn from patent US8586573B2, “N-(Aminoheteroaryl)-1H-indole-2-carboxamide derivatives, and preparation and therapeutic application thereof” (Sanofi, priority 2006, dated 2013).
